Source: US10253004B2, “Indanylaminopyrazinylcyclopropanecarboxylic acids, pharmaceutical compositions and uses thereof” (Boehringer Ingelheim International GmbH, priority 2017, dated 2019)
≈ marks a conversion by molar mass, not a printed value. Like-named read-outs stand apart in the source and are kept apart here.

Key:
[1] = Chemical stability (degradation kinetics) in acidic aqueous media, HPLC recovery; format: physicochemical; conditions: for Amount of degradation after 2 h: pH ca. 1.2, 37° C., acetonitrile/0.1 M aqueous HCl (2:3); for Chemical stability at pH ca. 1.2: degradation after 2 h at 37° C.: pH ca. 1.2, 2 h
Procedure: Degradation kinetics is used to simulate chemical stability of compounds in the acidic part of the gastro intestinal tract. […] Their application as medical drugs to treat human diseases is therefore less restricted and troublesome.
The chemical stability of the compounds of the invention at pH value of ca. 1.2 is determined as follows:
Compound is dissolved in an HPLC vial either in a mixture of acetonitrile/0.1 M aqueous HCl (2:3; pH ca. 1.2) or in a mixture of acetonitrile/Mcllvaine buffer pH 7.4 (2:3) to get a concentration of approximately 0.25 mg/ml. The vial was then transferred into an HPLC autosampler system and maintained at a temperature of 37° C. A first sample is taken and injected immediately into a standard HPLC system with a UV DAD detector. Further samples are injected after 2, 4, 6, 8 and 10 hours. Amount of degraded compound is measured by determining the recovery rate of compound [%] for each injection using an HPLC standard gradient method. Therefore the peak area of the main peak for the first injection (AUt0) is determined and set as 100%. Peak area of the main peak is determined also for the further injections (AUtn, n=2, 4, 6, 8, 10) and expressed as fraction of […] [%].

[2] = target: cytochrome P450 2C8-isoenzyme (Homo sapiens (Human), UniProt P10632); test: Inhibition of CYP-2C8 (amodiaquine deethylation, human liver microsomes); format: in vitro ADME; conditions: amodiaquine 1 μM, 37° C.
Procedure: (§1) All assays are carried out on a robotic system in 96 well plates. The final incubation volume contains TRIS buffer (0.1 M), MgCl2 (5 mM), human liver microsomes (0.05 mg/mL), amodiaquine (1 μM) and the test compound at five different concentrations or no compound (high control) in duplicate (e.g. highest concentration 10-50 μM with subsequent serial 1:4 dilutions). Following a short preincubation period, reactions are started with the cofactor (NADPH, 1 mM) and stopped by cooling the incubation down to 8° C. and subsequently by addition of one volume of acetonitrile. An internal standard solution—the stable isotope d5-desethylamodiaquine—is added after quenching of incubations. Peak area analyte (=metabolite formed) and internal standard is determined by LC-MS/MS. The resulting peak area ratio analyte to internal standard in these incubations is compared to a control activity containing no test compound. Within each of the assay runs, the IC50 of a positive control inhibitor (Montelukast) is determined.

human GPR40 receptor = human GPR40 receptor (Homo sapiens (Human), UniProt O14842); test: IP1 accumulation measurements using the IPOne assay system; format: cell-based
Procedure: IP1 accumulation measurements using the IPOne assay system—1321N1 cells stably expressing human GPR40 receptor (Euroscreen, Belgium) are seeded 24 h before the assay in white 384-well plates in culture medium containing 10% FCS, 1% Na-Pyruvate and 400 μg/mL G418. IP1 is assayed according to the manufacturer's description (Cisbio Bioassays, France). In brief, the assay is started by substitution of the culture medium by stimulation buffer (Hepes 10 mM, CaCl2 1 mM, MgCl2 0.5 mM, KCl 4.2 mM, NaCl 146 mM, glucose 5.5 mM and LiCl 50 mM, pH 7.4). Cells are stimulated for 1 h at 37° C., 5% CO2 by addition of the compounds that are diluted in stimulation buffer containing LiCl. Assays are stopped by adding HTRF-conjugates (IP1-d2 and Anti-IP1 cryptate Tb) and lysis buffer, provided by the manufacturer. After an incubation time of 1 h at room temperature plates are measured using an EnVision™, Perkin Elmer. The obtained fluorescence ratios at 665/615 […] are then used to calculate the pEC50 values using Assay Explorer 3.3 Software (Accelrys, Inc.) by interpolation using an IP1 reference curve and subsequent sigmoidal curve fitting allowing for a variable hill slope.

[3] = target: cytochrome P450 2C9-isoenzyme (Homo sapiens (Human), UniProt P11712); test: Inhibition of CYP-2C9 (diclofenac hydroxylation, human liver microsomes); format: in vitro ADME; conditions: diclofenac 10 μM, 37° C.
Procedure: as §1, with “(0.1” for “(0.05”, “diclofenac (10” for “amodiaquine (1”, “(e.g.,” for “(e.g.”, “^13C6-hydroxydiclofenac—is” for “d5-desethylamodiaquine—is”, “(sulfaphenazole)” for “(Montelukast)”

[4] = Aqueous solubility in buffer vs acetonitrile/water, LC-UV; format: physicochemical; conditions: kinetic from dmso stock, pH 6.8 buffer, 24 h shaking, 2.5% DMSO
Procedure: The aqueous solubility of the compounds of the invention is determined by comparing the amount dissolved in buffer to the amount in an acetonitrile/water (1/1) solution. Starting from a 10 mM DMSO stock solution aliquots are diluted with acetonitrile/water (1/1) or buffer, respectively. After 24 h of shaking, the solutions are filtrated and analyzed by LC-UV. The amount dissolved in buffer is compared to the amount in the acetonitrile solution.
Solubility is usually being measured from 0.001 to 0.125 mg/mL at a DMSO concentration of 2.5%. If more than 90% of the compound is dissolved in buffer, the value is marked with “>”.

[5] = given as IC50, own-compound values equal the EC50 of Table 2, read-out: GPR40: IC50
[6] = 1321N1 cells stably expressing human GPR40, IP1 accumulation, read-out: EC50

Sequence of cytochrome P450 2C8-isoenzyme (P10632 whole entry): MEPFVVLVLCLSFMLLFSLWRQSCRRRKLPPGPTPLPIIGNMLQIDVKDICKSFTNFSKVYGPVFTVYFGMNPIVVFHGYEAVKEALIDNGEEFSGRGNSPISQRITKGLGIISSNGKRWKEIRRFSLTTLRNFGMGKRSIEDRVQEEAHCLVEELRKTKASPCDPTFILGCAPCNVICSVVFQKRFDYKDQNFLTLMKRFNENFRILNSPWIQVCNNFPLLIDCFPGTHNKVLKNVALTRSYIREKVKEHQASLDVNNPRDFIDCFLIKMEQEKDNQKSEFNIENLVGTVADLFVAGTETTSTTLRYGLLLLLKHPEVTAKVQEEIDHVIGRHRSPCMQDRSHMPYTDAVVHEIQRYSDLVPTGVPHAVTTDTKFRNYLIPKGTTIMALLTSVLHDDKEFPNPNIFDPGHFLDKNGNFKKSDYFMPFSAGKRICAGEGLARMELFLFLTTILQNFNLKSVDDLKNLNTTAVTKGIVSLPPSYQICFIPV
Sequence of cytochrome P450 2C9-isoenzyme (P11712 whole entry): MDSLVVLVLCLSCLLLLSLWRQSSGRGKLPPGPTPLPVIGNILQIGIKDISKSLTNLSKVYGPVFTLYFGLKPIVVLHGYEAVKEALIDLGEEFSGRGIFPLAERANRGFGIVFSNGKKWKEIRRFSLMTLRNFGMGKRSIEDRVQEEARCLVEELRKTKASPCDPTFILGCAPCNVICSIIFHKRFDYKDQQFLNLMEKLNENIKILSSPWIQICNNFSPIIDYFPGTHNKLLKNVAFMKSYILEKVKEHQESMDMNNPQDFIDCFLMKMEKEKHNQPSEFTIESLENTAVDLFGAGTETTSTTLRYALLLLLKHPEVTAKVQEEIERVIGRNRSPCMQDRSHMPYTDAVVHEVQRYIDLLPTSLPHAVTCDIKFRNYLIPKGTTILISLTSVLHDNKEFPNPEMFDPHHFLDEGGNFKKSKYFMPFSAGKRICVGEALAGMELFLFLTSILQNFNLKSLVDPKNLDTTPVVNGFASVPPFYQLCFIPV
Sequence of human GPR40 receptor (O14842 whole entry): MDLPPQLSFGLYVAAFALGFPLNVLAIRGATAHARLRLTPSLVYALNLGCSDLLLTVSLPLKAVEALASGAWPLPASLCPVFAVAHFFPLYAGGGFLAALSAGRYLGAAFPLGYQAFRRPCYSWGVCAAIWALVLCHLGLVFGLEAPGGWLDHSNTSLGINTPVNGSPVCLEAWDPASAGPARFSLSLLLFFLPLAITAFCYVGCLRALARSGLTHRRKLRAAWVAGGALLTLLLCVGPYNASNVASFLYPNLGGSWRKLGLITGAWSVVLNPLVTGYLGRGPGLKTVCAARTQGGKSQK

Cc1cc(OCCCS(C)(=O)=O)cc(C)c1-c1ccc(F)c2c1CC[C@H]2Oc1ccc([C@H]2C[C@@H]2C(=O)O)cc1 [Example 11 in WO 2013/178575, reference compound]
Amount of degradation after 2 h [1]: 5%
Chemical stability at pH ca. 1.2: degradation after 2 h at 37° C. [1]: 5%
IC50 [2]: 12000 nM
EC50 (human GPR40 receptor; [5]): 8 nM
IC50 [3]: 17000 nM

Cc1cc(OCCCS(C)(=O)=O)cc(C)c1-c1ccc(F)c2c1CC[C@H]2Nc1cnc([C@H]2C[C@@H]2C(=O)O)cn1 [Example 4, (1S,2S)-2-(5-{(R)-7-Fluoro-4-[4-(3-methanesulfonyl-propoxy)-2,6-dimethyl-phenyl]-indan-1-ylamino}-pyrazin-2-yl)-cyclopropanecarboxylic acid]
Amount of degradation after 2 h [1]: <0.5%
Chemical stability at pH ca. 1.2: degradation after 2 h at 37° C. [1]: < 0.5%
IC50 [2]: > 50000 nM
EC50 (human GPR40 receptor; [6]): 8 nM
EC50 (human GPR40 receptor; [5]): 8 nM
solubility at 24 h ([4]; buffer pH 6.8, aqueous buffer): 92 µg/mL (≈ 166 µM)
IC50 [3]: > 50000 nM

Cc1cc(OCCC(C)(C)O)cc(C)c1-c1cccc2c1CC[C@H]2Nc1cnc([C@H]2C[C@@H]2C(=O)O)cn1 [Example 7, (1S,2S)-2-(5-{(R)-4-[4-(3-Hydroxy-3-methyl-butoxy)-2,6-dimethyl-phenyl]-indan-1-ylamino}-pyrazin-2-yl)-cyclopropanecarboxylic acid]
Amount of degradation after 2 h [1]: <1%
EC50 (human GPR40 receptor; [6]): 4 nM

Cc1cccc(C)c1-c1ccc(F)c2c1CC[C@H]2Oc1ccc(C2CC2C(=O)O)cc1 (stereo partly drawn) [Example 33 in WO 2013/178575, reference compound]
Amount of degradation after 2 h [1]: 8%

Cc1cc(OCCC(C)(C)O)cc(C)c1-c1ccc(F)c2c1CC[C@H]2Oc1ccc([C@H]2C[C@@H]2C(=O)O)cc1 [Example 17 in WO 2013/178575, reference compound]
Amount of degradation after 2 h [1]: 8%
Chemical stability at pH ca. 1.2: degradation after 2 h at 37° C. [1]: 8%
solubility at 24 h ([4]; buffer pH 6.8, aqueous buffer): < 1 µg/mL

Cc1cc(C(=O)NCC(C)(C)O)cc(C)c1-c1ccc(F)c2c1CC[C@H]2Oc1ccc([C@H]2C[C@@H]2C(=O)O)cc1 [Example 15 in WO 2013/178575, reference compound]
Amount of degradation after 2 h [1]: 3%

Cc1cc(-c2nnn(C)n2)cc(C)c1-c1ccc(F)c2c1CC[C@H]2Nc1cnc([C@H]2C[C@@H]2C(=O)O)cn1 [Example 35]
Amount of degradation after 2 h [1]: <1%
Chemical stability at pH ca. 1.2: degradation after 2 h at 37° C. [1]: < 1%
IC50 [2]: 21000 nM
EC50 (human GPR40 receptor; [5]): 2 nM
solubility at 24 h ([4]; aqueous buffer): 34 µg/mL (≈ 68.1 µM)
IC50 [3]: 32000 nM

Cc1cc(-c2nnn(C)n2)cc(C)c1-c1ccc(F)c2c1CC[C@H]2Oc1ccc([C@H]2C[C@@H]2C(=O)O)cc1 [Example 45 in WO 2013/178575, reference compound]
solubility at 24 h ([4]; buffer pH 6.8, aqueous buffer): < 1 µg/mL

Cc1c(C#N)cccc1-c1ccc(F)c2c1CC[C@H]2Oc1ccc([C@H]2C[C@@H]2C(=O)O)cc1 [Example 54 in WO 2013/178575, reference compound]
Amount of degradation after 2 h [1]: 2.5%^

COc1cnc(-c2ccc(-c3cccc4c3CC[C@H]4Nc3cnc([C@H]4C[C@@H]4C(=O)O)cn3)cc2)cn1 [Example 9, (1S,2S)-2-(5-{(R)-4-[4-(5-Methoxy-pyrazin-2-yl)-phenyl]-indan-1-ylamino}-pyrazin-2-yl)-cyclopropanecarboxylic acid]
EC50 (human GPR40 receptor; [6]): 35 nM

COc1cc(OC)c(-c2ccc(F)c3c2CC[C@H]3Nc2cnc([C@H]3C[C@@H]3C(=O)O)cn2)c(OC)c1 [Example 24]
EC50 (human GPR40 receptor; [6]): 128 nM

O=C(O)[C@H]1C[C@@H]1c1cnc(N[C@@H]2CCc3c(-c4c(F)cccc4F)ccc(F)c32)cn1 [Example 16]
EC50 (human GPR40 receptor; [6]): 77 nM

Cc1cc(OCCC(C)(C)O)cc(C)c1-c1ccc(F)c2c1CC[C@H]2Nc1cnc([C@H]2C[C@@H]2C(=O)O)cn1 [Example 2, (1S,2S)-2-(5-{(R)-7-Fluoro-4-[4-(3-hydroxy-3-methyl-butoxy)-2,6-dimethyl-phenyl]-indan-1-ylamino}-pyrazin-2-yl)-cyclopropanecarboxylic acid]
Amount of degradation after 2 h [1]: <0.5%
Chemical stability at pH ca. 1.2: degradation after 2 h at 37° C. [1]: < 0.5%
IC50 [2]: > 50000 nM
EC50 (human GPR40 receptor; [6]): 4 nM
EC50 (human GPR40 receptor; [5]): 4 nM
solubility at 24 h ([4]; buffer pH 6.8, aqueous buffer): 87 µg/mL (≈ 167 µM)
IC50 [3]: > 50000 nM

Cc1cc(OC2CCOCC2)cc(C)c1-c1ccc(F)c2c1CC[C@H]2Nc1cnc([C@H]2C[C@@H]2C(=O)O)cn1 [Example 31]
EC50 (human GPR40 receptor; [6]): 9 nM

COc1cc(OC)c(Cl)c(-c2ccc(F)c3c2CC[C@H]3Nc2cnc([C@H]3C[C@@H]3C(=O)O)cn2)c1Cl [Example 29]
EC50 (human GPR40 receptor; [6]): 5 nM
